Drawing on US20240246979A1, “cGAS INHIBITORS” (Eli Lilly and Company, priority 2022, published 2024), this text covers IC50 for 21 compounds.

Experiment [1] has as its target T1, cGAS (Homo sapiens, UniProt Q8N884). As to the kind of experiment: Cellular assay to measure cGAS activity (IFNb AlphaLISA in THP1 cells stimulated by RDG-Adenovirus-GFP). It counts as cell-based. Details: host or cells: THP1 cells differentiated with PMA and stimulated with RDG-Adenovirus-GFP. The conditions noted are these: PMA-differentiated THP1 cells, RDG-Adenovirus-GFP at 1000 MOI; inhibition of IFNb production as marker for cGAS activity. How it is done: Cellular assay to measure cGAS activity: Use THP1 cell line from ATCC to determine inhibition of cGAS activity by test compounds in human cells. Plate cells on 96-well plates at 0.2×10^6/well and differentiate with phorbol myristate acetate (PMA) at 37° C./5% CO2. After 24 hours, replace PMA containing media with media lacking PMA and further incubate overnight. Stimulate cells were then by RDG-Adenovirus-GFP (Vector Biolabs #1768) at 1000 MOI for 4 hours prior to the addition of test compounds. After overnight incubation, transfer 10 μL of the media from each well to a new plate for IFNb analysis as a marker for cGAS activity. Measure quantification of IFNb with an IFNb AlphaLISA Detection kit (Perkin Elmer AL3133F) by mixing the acceptor beads with the cell supernatant followed by the addition of the biotinylated antibody and donor beads. Measure the relative fluorescence signal produced from the interaction of the donor and acceptor beads by a PHERAStar AlphaLISA protocol and evaluate the inhibitory effect of a compound by plotting specific inhibition of IFNb production against log concentration of the test compound. Calculate IC50 values using a 4-parameter non-linear logistic equation (y=(S0+((SInf−S0)/(1+((qAC50/x)^nHill))))).
(Alpha assays give light when donor and acceptor beads are brought close together.)

In experiment [2] the target is T1, cGAS. As to the kind of experiment: In vitro inhibition assay of cGAS activity (cGAMP production, RapidFire mass spectrometry). On the set-up: Insert cDNA encoding full-length of human cGAS; His6; made in house; host or cells: E. coli BL21(DE3). It counts as biochemical. Particulars: 10 nM recombinant human cGAS, 60 nM 75-bp dsDNA, 50 μM ATP, 50 μM GTP, 3 hrs. How it is done: Expression and Purification of Recombinant cGAS Protein: Insert cDNA encoding full-length of human cGAS into a modified bacterial expression vector containing an in-frame His6-tag. Induce the E. coli strain BL21(DE3) harboring the plasmid with 1 mM IPTG (Isopropyl β-D-1-thiogalactopyranoside) at 18° C. overnight. Purify the His6-tagged cGAS protein over HISpur Ni-NTA resin in the presence of benzonase and RNase followed by Superdex 200 size exclusion chromatography with storage buffer (50 mM Tris-HCl pH 7.5, 300 mM NaCl, 1 mM DTT, 10% glycerol).
In vitro inhibition assay of cGAS activity: Add a 5 μL mixture containing 10 mM Tris-Cl pH 7.5, 50 mM NaCl, 5 mM MgCl2, 1 mM DTT, 0.01% Triton X-100, 60 nM 75-bp dsDNA, 50 μM ATP, 50 μM GTP, 10 nM of recombinant human cGAS, and serial dilutions of a test compound in DMSO to a 384-well plate and incubate at ambient temperature for 3 hrs. Quench the reaction by the addition of 100 μL of stop solution containing 0.1% formic acid and 0.1 μM internal standard (3′3′-difluoro cGAMP). Measure the amount of cGAMP produced by RapidFire 365 mass spectrometry and evaluate inhibitory effect of a compound by plotting percent specific inhibition of cGAMP production against log concentration of the test compound. Calculate IC50 values using a 4-parameter non-linear logistic equation (y=(S0+((Sinf−S0)/(1+((qAC50/x)^nHill))))).

Where only a bound is given, the exact number is not on record here.

T1 sequence (Q8N884 whole entry): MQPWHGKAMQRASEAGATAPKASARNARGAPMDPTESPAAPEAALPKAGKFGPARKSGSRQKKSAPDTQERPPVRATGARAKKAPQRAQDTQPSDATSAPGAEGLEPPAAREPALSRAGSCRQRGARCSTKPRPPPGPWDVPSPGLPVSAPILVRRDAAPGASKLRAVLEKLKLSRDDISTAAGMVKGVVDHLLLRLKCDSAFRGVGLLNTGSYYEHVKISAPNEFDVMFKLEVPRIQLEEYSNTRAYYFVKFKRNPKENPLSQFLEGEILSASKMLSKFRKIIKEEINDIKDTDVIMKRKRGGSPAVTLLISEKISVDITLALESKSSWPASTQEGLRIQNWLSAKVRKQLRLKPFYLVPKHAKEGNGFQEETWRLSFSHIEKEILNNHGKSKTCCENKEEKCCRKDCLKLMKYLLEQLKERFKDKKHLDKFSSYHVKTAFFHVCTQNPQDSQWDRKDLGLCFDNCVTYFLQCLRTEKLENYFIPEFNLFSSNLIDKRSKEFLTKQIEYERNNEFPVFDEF

Consider `CC1C(=O)NCCc2[nH]c3c(Cl)c(Cl)cc(N[C@H]4CCOC4)c3c21` (mixture of isomers) [Example 61, 7,8-Dichloro-1-methyl-10-(((S)-tetrahydrofuran-3-yl)amino)-3,4,5,6-tetrahydroazepino[4,5-b]indol-2(1H)-one], for which the results for the half-maximal inhibitory concentration (IC50) against cGAS [1] and on cGAS [2] were 1910 nM and 34.5 nM, respectively.

In the case of `CC1C(=O)NCCc2[nH]c3c(Cl)c(Cl)cc(OC4CCOC4)c3c21` (mixture of isomers) [Example 86, 7,8-Dichloro-1-methyl-10-((tetrahydrofuran-3-yl)oxy)-3,4,5,6-tetrahydroazepino[4,5-b]indol-2(1H)-one], the figures for the IC50 against cGAS [1] and at cGAS [2] were 3470 nM and 51.9 nM, respectively.

For the compound `CC(O)CC1CNC(=O)Cc2c1n(C)c1c(Cl)c(Cl)cc(CC#N)c21` (mixture of isomers) [Example 128, 2-(7,8-Dichloro-5-(2-hydroxypropyl)-6-methyl-2-oxo-1,2,3,4,5,6-hexahydroazepino[4,5-b]indol-10-yl)acetonitrile], the IC50 was 217 nM at cGAS [1] and 13.6 nM at cGAS [2].

For the compound `CCOC(=O)CC1CNC(=O)Cc2c1[nH]c1c(Cl)c(Cl)cc(-c3cnn(C)n3)c21` (racemic) [Example 4, Ethyl 2-(7,8-dichloro-10-(2-methyl-2H-1,2,3-triazol-4-yl)-2-oxo-1,2,3,4,5,6-hexahydroazepino[4,5-b]indol-5-yl)acetate], the IC50 against cGAS [1] is 3570 nM; at cGAS [2], 26.2 nM.

Take `Cn1ncc(-c2cc(Cl)c(Cl)c3[nH]c4c(c23)CC(=O)NCC4CC(=O)O)n1` (racemic) [Example 5, 2-(7,8-Dichloro-10-(2-methyl-2H-1,2,3-triazol-4-yl)-2-oxo-1,2,3,4,5,6-hexahydroazepino[4,5-b]indol-5-yl)acetic acid]: the IC50 against cGAS [1] was more than 10000 nM; at cGAS [2], 5.12 nM.

As to `Cn1ncc(-c2cc(Cl)c(Cl)c3[nH]c4c(c23)CC(=O)NCC4CCO)n1` (racemic) [Example 8, 7,8-Dichloro-5-(2-hydroxyethyl)-10-(2-methyl-2H-1,2,3-triazol-4-yl)-3,4,5,6-tetrahydroazepino[4,5-b]indol-2(1H)-one], the concentration for half-maximal inhibition (IC50) at cGAS [1] was 420 nM; at cGAS [2], 19 nM.

Take `CC(=O)OCCCOc1cc(Cl)c(Cl)c2[nH]c3c(c12)C(C)C(=O)NCC3` (racemic) [Example 13, 3-((7,8-Dichloro-1-methyl-2-oxo-1,2,3,4,5,6-hexahydroazepino[4,5-b]indol-10-yl)oxy)propyl acetate]: the IC50 was determined as 582 nM against cGAS [1] and 9050 nM on cGAS [2].

Regarding `COCCNc1cc(Cl)c(Cl)c2[nH]c3c(c12)C(C)C(=O)NCC3` (racemic) [Example 46, 7,8-Dichloro-10-((2-methoxyethyl)amino)-1-methyl-3,4,5,6-tetrahydroazepino[4,5-b]indol-2(1H)-one], the values for the IC50 against cGAS [1] and at cGAS [2] were 885 nM and 22.6 nM, respectively.

For `CC1C(=O)NCCc2[nH]c3c(Cl)c(Cl)cc(NCCO)c3c21` (racemic) [Example 49, 7,8-Dichloro-10-((2-hydroxyethyl)amino)-1-methyl-3,4,5,6-tetrahydroazepino[4,5-b]indol-2(1H)-one], the figures for the IC50 on cGAS [1] and on cGAS [2] were 390 nM and 15 nM, respectively.

Consider `CC1C(=O)NCCc2[nH]c3c(Cl)c(Cl)c(F)c(NCCO)c3c21` (racemic) [Example 52, 7,8-Dichloro-9-fluoro-10-((2-hydroxyethyl)amino)-1-methyl-3,4,5,6-tetrahydroazepino[4,5-b]indol-2(1H)-one], for which the half-inhibitory concentration (IC50) was 2220 nM against cGAS [1] and 29.1 nM at cGAS [2].

For the compound `CC1C(=O)NCCc2[nH]c3c(Cl)c(Cl)cc(NC4COC4)c3c21` (racemic) [Example 60, 7,8-Dichloro-1-methyl-10-(oxetan-3-ylamino)-3,4,5,6-tetrahydroazepino[4,5-b]indol-2(1H)-one], the IC50 was determined as 974 nM at cGAS [1] and 53.3 nM at cGAS [2].

For `CC1C(=O)NCCc2[nH]c3c(Cl)c(Cl)cc(OCC(F)F)c3c21` (racemic) [Example 76, 7,8-Dichloro-10-(2,2-difluoroethoxy)-1-methyl-3,4,5,6-tetrahydroazepino[4,5-b]indol-2(1H)-one], the concentration for half-maximal inhibition (IC50) came out at 1470 nM at cGAS [1] and 38.6 nM at cGAS [2].

For the compound `CC1C(=O)NCCc2c1c1c(NCCO)cc(Cl)c(Cl)c1n2C(F)F` (racemic) [Example 140, 7,8-Dichloro-6-(difluoromethyl)-10-((2-hydroxyethyl)amino)-1-methyl-3,4,5,6-tetrahydroazepino[4,5-b]indol-2(1H)-one], the IC50 at cGAS [1] turned out to be 1280 nM; at cGAS [2], 16.4 nM.

As to `C[C@H]1CNC(=O)[C@H](C)c2c1[nH]c1c(Cl)c(Cl)cc(NC(=O)CO)c21` (racemic) [Example 158, trans-N-(7,8-dichloro-1,5-dimethyl-2-oxo-1,2,3,4,5,6-hexahydroazepino[4,5-b]indol-10-yl)-2-hydroxyacetamide], the half-maximal inhibitory concentration (IC50) on cGAS [1] came out at 341 nM; on cGAS [2], 19.7 nM.

As to `COCCC1CNC(=O)Cc2c1[nH]c1c(Cl)c(Cl)cc(-c3cnn(C)n3)c21` (racemic) [Example 166, 7,8-Dichloro-5-(2-methoxyethyl)-10-(2-methyl-2H-1,2,3-triazol-4-yl)-3,4,5,6-tetrahydroazepino[4,5-b]indol-2(1H)-one], the half-inhibitory concentration (IC50) against cGAS [1] worked out at 1020 nM; at cGAS [2] it was 20.7 nM.

Consider `COCC[C@@H]1CNC(=O)[C@@H](C)c2c1[nH]c1c(Cl)c(Cl)cc(NCCO)c21` (racemic) [Example 169, trans-7,8-Dichloro-10-((2-hydroxyethyl)amino)-5-(2-methoxyethyl)-1-methyl-3,4,5,6-tetrahydroazepino[4,5-b]indol-2(1H)-one], for which the IC50 against cGAS [1] was 1130 nM; at cGAS [2], 26.2 nM.

With `COCC[C@@H]1CNC(=O)[C@H](C)c2c1[nH]c1c(Cl)c(Cl)cc(NCCO)c21` (racemic) [Example 170, cis 7,8-Dichloro-10-((2-hydroxyethyl)amino)-5-(2-methoxyethyl)-1-methyl-3,4,5,6-tetrahydroazepino[4,5-b]indol-2(1H)-one], the values for the 50% inhibitory concentration (IC50) against cGAS [1] and at cGAS [2] were 473 nM and 27.7 nM, respectively.

Turning to `Cn1ncc(-c2cc(Cl)c(Cl)c3[nH]c4c(c23)CC(=O)NCC4CCC(F)F)n1` (racemic) [Example 177, 7,8-Dichloro-5-(3,3-difluoropropyl)-10-(2-methyl-2H-1,2,3-triazol-4-yl)-3,4,5,6-tetrahydroazepino[4,5-b]indol-2(1H)-one], the IC50 on cGAS [1] was 841 nM; on cGAS [2], 23.1 nM.

In the case of `C[C@@H]1CNC(=O)[C@H](C)c2c1[nH]c1c(Cl)c(Cl)cc(NC(=O)CO)c21` (relative stereo) [Example 159, cis-N-(7,8-dichloro-1,5-dimethyl-2-oxo-1,2,3,4,5,6-hexahydroazepino[4,5-b]indol-10-yl)-2-hydroxyacetamide], the IC50 was 1390 nM on cGAS [1] and 60.6 nM on cGAS [2].

Turning to `Cn1ccc(-c2cc(Cl)c(Cl)c3[nH]c4c(c23)CC(=O)NCC4)n1` [Example 3, 7,8-Dichloro-10-(1-methyl-1H-pyrazol-3-yl)-3,4,5,6-tetrahydroazepino[4,5-b]indol-2(1H)-one], the 50% inhibitory concentration (IC50) at cGAS [2] was 111 nM.

Regarding `Cn1c2c(c3c(OCC#N)cc(Cl)c(Cl)c31)CC(=O)NCC2` [Example 21, 2-((7,8-Dichloro-6-methyl-2-oxo-1,2,3,4,5,6-hexahydroazepino[4,5-b]indol-10-yl)oxy)acetonitrile], the half-maximal inhibitory concentration (IC50) on cGAS [2] came out at 141 nM.

One may read the IC50 as the concentration at which inhibition is half-maximal.
